From US11731946B2, “Broad spectrum antivirulence, anti-persistence compounds” (priority 2017, dated 2023)
Where “and” joins values, the source holds several entries; their conditions need not be identical. Equal entries are not always repeated.

Tests used:
[1] = test system: MvfR regulon; test: Quantification of pyocyanin (OD520nm of chloroform-extracted cultures); assay type: cell-based, P. aeruginosa; conditions: Pseudomonas aeruginosa
[2] = test system: PA14; test: Antibiotic tolerance/persister (AT/P) cell formation, meropenem, CFU plating; assay type: cell-based, P. aeruginosa; conditions: 50 μM compound
Procedure: Wild type (PA14) P. aeruginosa was grown in liquid culture with or without Compound 54 and treated with meropenem according to published procedures (see e.g., Starkey et al, PLoS Pathog. 2014, 10:e1004321). Data are expressed as fraction of original culture surviving antibiotic treatment.
AT/P efficacy of compounds using CFU plating was assessed by growning over-night, cultures diluted 1:100 in triplicate in fresh LB medium in the presence or absence of inhibitor, and re-grown to an OD600 of 2.0 while shaking under aeration at 37° C. Before the antibiotic treatment, aliquots were plated to obtain reference colony counts. […] At 24-h and 48-h time points, the number of surviving bacteria were assessed by plating. The survival fraction of AT/P cells was calculated by dividing the number of surviving bacteria by the number of live bacteria that were present before the antibiotic treatment (reference datum) and expressed as a mean (±SD) of at least three replicate experiments. Using the same CFU plating assay, the efficacy of all compounds identified will be tested against additional antibiotic classes: b-lactams (ceftazidime, cefepime and imipenem), quinolones (ciprofloxacin, moxifloxacin, and levofloxacin), and aminoglycosides (gentamicin and tobramycicn).

[3] = test system: Caco2 intestinal epithelial cells; test: Survival of Caco2 cells after compound exposure; assay type: cell-based; conditions: 25 μM, 3 hours exposure
[4] = target: T1, MvfR (Pseudomonas aeruginosa, UniProt Q9I4X0); test: Surface plasmon resonance (SPR) binding to purified MvfR co-inducer binding domain; design: species or system P. aeruginosa
T1 construct: made in house
T1 sequence (Q9I4X0 91-332): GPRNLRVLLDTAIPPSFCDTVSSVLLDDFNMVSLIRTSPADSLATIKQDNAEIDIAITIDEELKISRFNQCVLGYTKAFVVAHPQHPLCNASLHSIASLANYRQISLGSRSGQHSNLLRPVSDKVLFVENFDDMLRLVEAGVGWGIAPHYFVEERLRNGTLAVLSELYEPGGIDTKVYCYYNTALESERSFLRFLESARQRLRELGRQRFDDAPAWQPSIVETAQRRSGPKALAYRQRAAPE
Procedure: Compounds identified to interfere with MvfR were confirmed for the direct physical interaction with this protein. Using SPR, the percentage of compound's binding to the purified MvfR protein was analyzed and used to determine the binding parameters (KD, kon and koff)—thus determining the kinetic of interaction with MvfR.
The recombinant MvfR co-inducer binding domain was purified using Ni-NTA chromatography, as previously reported (see e.g., Xiao et al, Microbiology, 2006, 152:1679-1686; Starkey et al, PLoS Pathog. 2014, 10:e1004321; and Kefala et al, Acta. Crystallogr. Sect. F. Struct. Biol. Cryst. Commun. 2012, 68:695-697). The purified protein was immobilized with the amine coupling method at a target level of 5000 RU on Chip. SPR was performed according to previously reported procedures (see e.g., Starkey et al, PLoS Pathog. 2014, 10:e1004321; Maura et al, ACS Chemical Biology, 2017, 12:1435-1443; and Kitao et al, MBIO, in press). […] Table 3 lists the steady-state KD data measured by SPR.

[5] = test system: PA14; test: Acute mouse lung infection model (PA14); assay type: in vivo, mice
[6] = test system: PA14; test: Mouse thigh infection model (PA14); assay type: in vivo, mice; conditions: 10 mg/kg SC; CFUs 24 h post-infection
Procedure: Mice were infected with 5×10^5 and 5×10^6 PA14 cells for the thigh and lung infection model respectively. FIGS. 5A-5C: Thigh model: treatment was initiated […] and repeated at 4, 8, 12 and 18 hours. FIG. 5A: monotherapy with Compound 72, 10 mg/kg (P<0.05 Mann Whitney test); FIG. 5B-5C. Combinatorial: Compound 72 (10 mg/kg) plus Ciprofloxacin 1 mg/kg (subtherapeutic dose) (FIG. 5B: P<0.05; Figure C: P>0.05; Mann Whitney test). CFUs were assessed 24 h post-infection in the thigh (FIG. 5A), liver (FIG. 5B) and spleen (FIG. 5C). Compound 72 was administered subcutaneously and ciprofloxacin intraperitoneally (IP). […] Mice were infected with 5×10^6 PA14 cells lung infection model. Compound 54 (10 mg/kg) plus ciprofloxacin 1 mg/kg treatment (subtherapeutic dose) was initiated at 2 h post-infection and repeated at 6, 12, and 18 h post-infection. CFUs were assessed 24 h post-infection in the lung. Compound 54 was administered subcutaneously and ciprofloxacin intraperitoneally (IP).
Thigh infection studies were performed using Compounds 54 and 72.

[7] = Pharmacokinetics in mouse plasma and lung after single subcutaneous injection; assay type: in vivo, mice; conditions: for stability in vivo (serum concentration): 10 mg/kg subcutaneous, over 24 h
Procedure: FIGS. 1F-1G show pharmacokinetics measured in mouse plasma (FIG. 1F) and lung (FIG. 1G) following a single subcutaneous injection of Compounds 53, 54, or 72 at 10 mg/kg.

N#Cc1ccc(NC(=O)CC(=O)Nc2ccc(Br)cc2)cc1 [Compound 54]
IC50 ([1]; read-out: IC50 pyocyanin (μM)): 1.8 µM
activity at 1 µM ([1]; read-out: pyocyanin @1 uM (%), compound at 1 uM): 60.8%
activity at 10 µM ([1]; read-out: pyocyanin @10 uM (%), compound at 10 uM): 5.9%
activity at 50 µM ([1]; read-out: pyocyanin @50 uM (%), compound at 50 uM): 5.7%
inhibition of persistence [2]: inhibit persistence
toxicity to Caco2 (survival) [3]: not toxic
binding to MvfR (in words) ([4]; FIG. 1B): high affinity
Signal Intensity Rmax ([4]; SPR): 28.21
binding intensity relative to parent Compound 1 ([4]; SPR): 40 times
Kd ([4]; Steady State Binding Affinity KD (μM), SPR, steady state): 0.275 µM
Kd ([4]; Steady State Binding Affinity KD [M], SPR, steady state): 0.275 µM
Kd ([4]; mean KD value, SPR, mean over the compounds named): ~0.25 µM and 0.25 µM
potentiation of ciprofloxacin in reducing PA cells in mice lungs ([5]; 10 mg/kg compound SC plus ciprofloxacin 1 mg/kg IP, CFUs 24 h post-infection): potentiates ciprofloxacin efficacy
recoverable CFUs from infected lungs ([5]; preliminary, intranasal infection, 10 mg/kg compound vs vehicle): reduces the recoverable CFUs from infected lungs
bacterial CFUs at the site of infection [6]: reduced bacterial CFUs
stability in vivo (serum concentration) [7]: stable in vivo
stability in vivo (serum concentration) ([7]; listed as D42): highly stable in vivo
pharmacokinetics (in words) ([7]; mouse, in vivo): promising pharmacokinetics
